This is an account of results in ChEMBL document CHEMBL1121945, “Nitrogen bridgehead compounds. 18. New antiallergic 4H-pyrido[1,2-a]pyrimidin-4-ones. 1” (J Med Chem, 1982).

Assay type in all cases: functional
The test system of experiment [1] is Rattus norvegicus. Nature of the experiment: Inhibition of rat passive cutaneous anaphylaxis (PCA) reaction was determined after oral administration. The settings on record: for ED50: read-out: ID50 (the source's name).
Experiment [2] relates to Rattus norvegicus. Nature of the experiment: Inhibition of rat passive cutaneous anaphylaxis (PCA) reaction after intravenous administration. The settings on record: for ED50: Rattus norvegicus, iv, read-out: ID50 (the source's name).
Experiment [3] is filed under the species Rattus norvegicus. Briefly: Inhibition of histamine release from sensitized rat mast cells in vitro.
Where [4] appears, read: Rattus norvegicus, Mast cell, read-out: EC50.

With `CC1CC/C(=N\Nc2ccccc2Br)c2ncc(C(=O)O)c(=O)n21` (stereo not given), in experiment [1] (Rattus norvegicus, po), the ED50 was more than 320 µmol/kg.
Regarding `CCOc1ccc(N/N=C2\CC[C@H](C)n3c2ncc(C(=O)O)c3=O)cc1`, the ED50 in experiment [2] is 100 µmol/kg; in experiment [1] (Rattus norvegicus, po), more than 100 µmol/kg. Also, the EC50 in experiment [3] (setting [4]) was found to be 19.2 µM.
In the same order, the values of `C[C@H]1CC/C(=N\Nc2ccc(O)cc2)c2ncc(C(=O)O)c(=O)n21` are 110 µmol/kg, more than 100 µmol/kg and 26.2 µM.
In the same order, the values of `CCOc1ccc(N/N=C2\CC[C@@H](C)n3c2ncc(C(=O)O)c3=O)cc1` are 0.2 µmol/kg, more than 100 µmol/kg and 1 µM.
Consider `C[C@@H]1CC/C(=N\Nc2ccc(O)cc2)c2ncc(C(=O)O)c(=O)n21`, for which the ED50 is 0.14 µmol/kg in experiment [2] and more than 100 µmol/kg in experiment [1] (Rattus norvegicus, po). The EC50 in experiment [3] (setting [4]) is 15.6 µM.
Regarding `CCOC(=O)c1cnc2n(c1=O)C(C)CC/C2=N\Nc1cccc(C(=O)O)c1` (stereo not given), in experiment [2], the ED50 amounted to 100 µmol/kg. The EC50 in experiment [3] (mast cells) turned out to be 740 uM l-1.
For `O=C(O)c1cnc2n(c1=O)CCC/C2=N\Nc1ccccc1`, the ED50 is 31.6 µmol/kg in experiment [2] and more than 100 µmol/kg in experiment [1] (Rattus norvegicus, po). For the same compound, the EC50 in experiment [3] (setting [4]) came out at 2.9 µM.
For `CC1CC/C(=N\Nc2cccc(I)c2)c2ncc(C(=O)O)c(=O)n21` (stereo not given), the ED50 in experiment [1] (Rattus norvegicus, po) is more than 1000 µmol/kg.
For `CCCCc1ccc(N/N=C2\CCC(C)n3c2ncc(C(=O)O)c3=O)cc1` (stereo not given), the ED50 in experiment [2] came out at 7.8 µmol/kg; in experiment [1] (Rattus norvegicus, po), 100 µmol/kg. Moreover, the EC50 in experiment [3] (setting [4]) amounted to 0.7 µM.
For `CCOc1cccc(N/N=C2\CCC(C)n3c2ncc(C(=O)O)c3=O)c1` (stereo not given), in that order: 0.2 µmol/kg, more than 100 µmol/kg and 4.7 µM.
For the compound `CCOC(=O)c1cnc2n(c1=O)C(C)CC/C2=N\Nc1ccccc1C(=O)O` (stereo not given), in experiment [2], the ED50 was 10 µmol/kg. Moreover, the EC50 in experiment [3] (setting [4]) is 100 µM.
For `COc1ccc(N/N=C2\CCC(C)n3c2ncc(C(=O)O)c3=O)cc1` (stereo not given), the ED50 turned out to be 0.8 µmol/kg in experiment [2] and 7.6 µmol/kg in experiment [1] (Rattus norvegicus, po). Moreover, in experiment [3] (mast cells), the EC50 is recorded as 128 uM l-1.
In the case of `CCOC(=O)c1cnc2n(c1=O)C(C)CC/C2=N\Nc1ccccc1` (stereo not given), in experiment [1] (Rattus norvegicus, po), the ED50 was more than 1000 µmol/kg.
With `CC1CC/C(=N\Nc2ccccc2O)c2ncc(C(=O)O)c(=O)n21` (stereo not given), the ED50 is 0.26 µmol/kg in experiment [2] and more than 100 µmol/kg in experiment [1] (Rattus norvegicus, po). Moreover, the EC50 in experiment [3] (mast cells) is 208 uM l-1.
Take `CC1CC/C(=N\Nc2ccccc2Cl)c2ncc(C(=O)O)c(=O)n21` (stereo not given): the ED50 in experiment [1] (Rattus norvegicus, po) is more than 1000 µmol/kg.
For the compound `CC1CC/C(=N\Nc2ccccc2)c2ncc(C(=O)NN)c(=O)n21` (stereo not given), in experiment [1] (Rattus norvegicus, po), the ED50 was more than 1000 µmol/kg.
Take `CC1CC/C(=N\Nc2ccc(-c3ccccc3)cc2)c2ncc(C(=O)O)c(=O)n21` (stereo not given): the ED50 in experiment [2] was 1.1 µmol/kg; in experiment [1] (Rattus norvegicus, po), more than 100 µmol/kg. In addition, the EC50 in experiment [3] (setting [4]) is 4.4 µM.
For `CC1CC/C(=N\Nc2ccccc2)c2ncc(C#N)c(=O)n21` (stereo not given), in experiment [1] (Rattus norvegicus, po), the ED50 was more than 1000 µmol/kg.
In the case of `CNC(=O)c1ccc(N/N=C2\CCC(C)n3c2ncc(C(=O)O)c3=O)cc1` (stereo not given), the ED50 in experiment [2] is 9.6 µmol/kg; in experiment [1] (Rattus norvegicus, po), more than 100 µmol/kg. For the same compound, the EC50 in experiment [3] (setting [4]) worked out at 100 µM.
As to `CC1CC/C(=N\Nc2cccc([N+](=O)[O-])c2)c2ncc(C(=O)O)c(=O)n21` (stereo not given), the ED50 was 0.5 µmol/kg in experiment [2] and more than 100 µmol/kg in experiment [1].
As for `CC1CC/C(=N\Nc2ccc(F)cc2)c2ncc(C(=O)O)c(=O)n21` (stereo not given), the ED50 is 12.2 µmol/kg in experiment [2] and more than 1000 µmol/kg in experiment [1] (Rattus norvegicus, po). Further, in experiment [3] (setting [4]), the EC50 is 1.2 µM.
With `CCOC(=O)c1cnc2n(c1=O)C(C)CC/C2=N\Nc1ccc(C(=O)O)cc1` (stereo not given), in experiment [2], the ED50 amounted to 100 µmol/kg. Further, the EC50 in experiment [3] (setting [4]) came to 66 µM.
In the case of `CC1CC/C(=N\Nc2ccccc2I)c2ncc(C(=O)O)c(=O)n21` (stereo not given), the ED50 in experiment [1] (Rattus norvegicus, po) was more than 1000 µmol/kg.
Regarding `CC1CC/C(=N\Nc2ccccc2C(=O)O)c2nccc(=O)n21` (stereo not given), the ED50 in experiment [2] was more than 100 µmol/kg; in experiment [1] (Rattus norvegicus, po), more than 100 µmol/kg. Besides, the EC50 in experiment [3] (setting [4]) was 100 µM.
Consider `CC1CC/C(=N\Nc2ccccc2)c2ncc(CC(=O)O)c(=O)n21` (stereo not given), for which the ED50 in experiment [2] came out at 100 µmol/kg. In experiment [3] (mast cells), the EC50 came out at 430 uM l-1.
For `CC1CC/C(=N\Nc2ccccc2CCO)c2ncc(C(=O)O)c(=O)n21` (stereo not given), the ED50 in experiment [2] is 10.8 µmol/kg; in experiment [1] (Rattus norvegicus, po), more than 100 µmol/kg. Moreover, the EC50 in experiment [3] (mast cells) came to 330 uM l-1.
Regarding `CCc1ccc(N/N=C2\CCC(C)n3c2ncc(C(=O)O)c3=O)cc1` (stereo not given), the ED50 in experiment [1] (Rattus norvegicus, po) is more than 1000 µmol/kg.
The same measure, in the same setting: the result for `CC1CC/C(=N\Nc2ccccc2[N+](=O)[O-])c2ncc(C(=O)O)c(=O)n21` (stereo not given) reads more than 1000 µmol/kg.
Consider `CC1CCC(=NNc2ccccc2C(=O)O)c2ncc(C(=O)O)c(=O)n21` (single isomer, unassigned; (+)), for which the ID50 in experiment [2] was 37.1 µM/kg. For the same compound, in experiment [3] (mast cells), the EC50 was determined as 1100 uM l-1.
`C[C@H]1CCC(=NNc2ccccc2)c2ncc(C(=O)O)c(=O)n21` (single isomer, unassigned; (+)): the ID50 was 0.3 µM/kg in experiment [2] and 1 µM/kg in experiment [1]. In experiment [3] (mast cells, read-out: EC50), the EC50 is 0.6 µM.
In the same order, the values of `C[C@H]1CCC(=NNc2ccccc2)c2ncc(C(=O)O)c(=O)n21` (single isomer, unassigned; (-)) are 54.8 µM/kg, more than 100 µM/kg and 8 µM.
`O=C(O)c1cc(=O)c2c(OCC(O)COc3cccc4oc(C(=O)O)cc(=O)c34)cccc2o1` [CROMOLYN SODIUM]: the ED50 in experiment [2] was 1 µmol/kg.
